# PMC4501119, “Cholestenoic acid, an endogenous cholesterol metabolite, is a potent γ-secretase modulator” (Molecular Neurodegeneration, 2015)
# Entries after “also recorded” stand apart in the source; their conditions may differ.
# How the values were obtained:
# [1] = system: endogenous mouse Aβ (mAβ) in primary neuron-glia cultures; test: Primary mixed neuron-glia culture, endogenous mouse Aβ ELISA; format: cell-based
# Protocol: Primary mixed neuron-glia cultures were prepared from postnatal day 0 (P0) C3HBL/6 mouse brains (Harlan Labs). Cerebral cortices were dissected from P0 mouse brains and were dissociated in 2 mg/ml papain (Worthington) and 50 μg/mL DNAse I (Sigma) at 37 °C for 20 min. They were then washed three times in sterile Hank’s balanced salt solution (HBSS) to inactivate the papain and switched to 5 % fetal bovine serume (HyClone) in Neurobasal-A growth media (Gibco), which includes 0.5 mM L-glutamine (Gibco), 0.5 mM GlutaMax (Life Technologies), 0.01 % antibiotic-antimycotic (Gibco), and 0.02 % SM1 supplement (Stemcell). The tissue mixture was then triturated three times using a 5 mL pipette followed by a Pasteur pipette, and strained through a 70 μm cell strainer. The cell mixture was then centrifuged at 200xg for 3 min, and re-suspended in fresh Neurobasal-A media. They were then plated onto poly-D-lysine coated 96well plates at 100,000 cells/well. Cells were maintained in the Neurobasal-A growth media mentioned above without fetal bovine serum (FBS) at 37 °C in a humidified 5 % CO2 chamber.
# Monoclonal antibodies to Aβ were generated by the Mayo Clinic Immunology Core facilities (Jacksonville, FL, USA). Ab5 recognizes an epitope in the amino terminus of Aβ (Aβ1-16), recognizes both monomeric and aggregated Aβ, and is human specific. […] Ab 2.1.3 was raised against Aβ35-42 and is specific for Aβx-42. […] For cell-based screens, Aβ was captured from conditioned medium with either Ab5, Ab38, Ab13.1.1, or Ab2.1.3 (coated at 10-50 μg/ml in EC buffer: 5 mM NaH2PO4-H2O, 20 mM Na2HPO4, 400 mM NaCl, 2.5 mM EDTA-full name, 151.5 μM BSA, 813 μM CHAPS, and 7.7 mM NaN3) on Immulon 4HBX Flat-Bottom Microfilter 96-well plates (Thermo Scientific, Waltham, MA, USA). Total Aβ level was determined by capture with Ab5 and detected with horseradish peroxidase (HRP)-conjugated 4G8 (a monoclonal antibody against Aβ17-24; Covance, Waltham, MA, USA) with the other Aβ peptides detected with HRP-conjugated Ab5. For the cell-free assay and measuring mouse endogenous Aβ, HRP-conjugated 4G8 was used as the secondary detection antibody. Aβ standards (Bachem, King of Prussia, PA, USA) were prepared by dissolving in hexafluoroisopropanol (HFIP) at 1 mg/ml with sonication, dried under nitrogen, resuspended at 2 mg/ml HFIP, sonicated again and dried under nitrogen. The resulting Aβ was resuspended in 0.01 % ammonium hydroxide, portioned into aliquots in EC buffer, and frozen at −80 °C. Following these steps, the Aβ is monomeric, as determined by size-exclusion chromatography.
# [2] = system: Aβ peptides in CHO-2B7 cells; test: IP/MS (MALDI-TOF) Aβ profile of CHO-2B7 conditioned media; format: cell-based, Chinese hamster; settings: 3 μM, vs DMSO control
# Protocol: Chinese hamster ovary (CHO) cells stably overexpressing APP695 (CHO-2B7 cells) were grown in Ham’s F-12 medium (Life Technologies) supplemented with 10 % fetal bovine serum and 100 units/ml of penicillin and 100 μg/ml streptomycin. Cells were grown at 37 °C in a humidified atmosphere containing 5 % CO2 in tissue culture plates (Costar). The cells were harvested at confluence and then utilized for biochemical analyses. Compounds were dissolved in dimethyl sulfoxide (DMSO) and screened in CHO-2B7 cells. The cells were incubated for 16 h in the presence of the compound diluted into OptiMEM-reduced serum medium (Life Technologies, Carlsbad, CA, USA) containing 1 % fetal bovine serum.
# Conditioned media from the CHO-2B7 cells and the samples prepared from in vitro γ-secretase studies were used to analyze Aβ and AICD profiles using matrix-assisted laser desorption/ionization time of flight (MALDI-TOF) mass spectrometry analysis. The secreted Aβ peptides were analyzed as previously described with the following modifications. Briefly, the Aβ peptides were immunoprecipitated using Ab5 recognizing the Aβ1-16 epitope and sheep anti-mouse IgG magnetic Dynabeads (Life Technologies, catalog no. 11201D) and the AICD fragments were captured using anti-Flag M2 magnetic beads (Sigma). […] Samples were analyzed using a Bruker Microflex LRF-MALDI-TOF mass spectrometer.
# [3] = system: brain mAβ42, mAβ38 and total mAβ; test: Brain Aβ levels after intraperitoneal injection in wild type mice; format: in vivo, mouse (C57BL/6 or CF-1)
# Protocol: 25(R)-CA powder was initially dissolved in DMSO (<4.5 % in the final mixture) and then combined with polyethylene glycol (15)-hydroxystearate (Solutol), ethanol, and water at a ratio of (15:10:75). One molar equivalent of sodium hydroxide was added to the mixture. We performed CA intraperitoneal (IP) injections to wild-type mice (C57BL/6 or CF-1). The mice were injected with 25(R)-CA on the right side of the abdomen. The injections have been performed with various time points (30 min, 1 h, 2 h, and 3 h) and with multiple doses (30 mg per kg (mg/kg), 60 mg/kg, 75 mg/kg and 100 mg/kg). The number of each cohort is 6–8. We used 30 mg/kg of CA for the time-course experiments, and for the dose–response experiments the end-point was set at 30 min. The brains and serum are harvested and frozen for brain Aβ extraction.
# The mouse brains were harvested at the age of 3 months. The brains were weighed and recorded. The Diethylamine/Sodium Chloride (DEA/NaCl) extraction buffer (0.4 % DEA) was added to each sample and homogenized using a sonicator. The samples were transferred to a poly-carbonate centrifuge tube and spun down at 50,000xg for 30 min at 4 °C. The supernatant was loaded on the vacuum manifold with the appropriate number of HLB Oasis columns. The samples were loaded on the conditioned column, filtered, and eluted using prepared elution buffer (90 % Methanol, 2 % NH4OH). The eluates are concentrated using the Thermo-Savant SpeedVac concentrator for a minimum of 2 h at 55 °C with radiant heat. The concentrated samples are reconstituted in a blocking buffer (0.67 % Bovine serum albumin (BSA)) at the appropriate volume.
# Monoclonal antibodies to Aβ were generated by the Mayo Clinic Immunology Core facilities (Jacksonville, FL, USA). […] Total Aβ level was determined by capture with Ab5 and detected with horseradish peroxidase (HRP)-conjugated 4G8 (a monoclonal antibody against Aβ17-24; Covance, Waltham, MA, USA) with the other Aβ peptides detected with HRP-conjugated Ab5. […] Following these steps, the Aβ is monomeric, as determined by size-exclusion chromatography.
structure (smiles),measurement,setting,value
"CC(CCC[C@@H](C)C(=O)O)[C@H]1CCC2C3CC=C4C[C@@H](O)CC[C@]4(C)C3CC[C@@]21C (stereo partly drawn) [Cmpd 2a, 25(R)-cholestenoic acid]",decrease of mAβ42 production,[1]; 3 μM,~ 60%
same,Aβ42:Aβ38 ratio,[1]; 3 μM and 10 μM,significant decrease
same,Aβ38 production,[1]; 10 μM,increased
same,decrease of mAβ42 production,[1]; 10 μM,~ 75%
same,Aβ spectra by mass spectrometry,[2],increased Aβ38 peak and decreased Aβ42 peak with no significant changes in Aβ40 peak
same,brain Aβ levels,"[3]; 30 mg/kg IP, brains harvested after 30 min, 1, 2 and 3 h",no changes
same,"brain mAβ42, mAβ38 and total mAβ","[3]; 30, 60, 75, 100 mg/kg IP, vs vehicle-injected control, listed as CA",No significant effects; also recorded: did not show acute effects; also recorded: did not affect
